Assays:
[1] = system: carrageenan edema of the foot; details: from references [14, 16]; cited from earlier work
[2] = Biological activity of fully substituted quercetins (test not specified)
SBP of white rats = experiment: Antihypertensive effect in normotensive white rats; format: in vivo; details: for Antihypertensive effect, %: intravenous, after 3 hours, Octadine 6.2 mg/kg, Greenflo 5.0 mg/kg (as thick chlorophyllipt extract), 0.025 mmol/kg
Method: The antihypertensive effect of the drugs was evaluated after 3 hours of observation. Digital data table.
For an objective comparison of the activity of the studied substances, ED30 was experimentally established (a unit of action that causes a decrease in SBP by 30%) for each drug. For this purpose, the value of the hypotensive effect of various doses of substances in three groups of five white rats was determined in experiment, the arithmetic mean of the obtained series and their standard errors were calculated. Then, digital data was plotted and ED30 was calculated.
An indicator of the true hypotensive effect of a new chemical is its ability to lower pathologically elevated SBP. To solve this problem, 5 adult white rats with spontaneous hypertension (weight 260-280 g) were used, in which, before the experiment, the level of SBP averaged 180±1.7 mm Hg. For comparison, an experiment was conducted on 5 white rats with normal SBP. 17.

[3] = system: systemic blood pressure of rabbits; experiment: Antihypertensive effect in rabbits; format: in vivo; details: intravenous, 3 hours, Octadine 15.0 mg/kg (0.06 mmol/kg), Greenflo 10.0 mg/kg (0.05 mmol/kg)
[4] = system: systemic blood pressure of cats; experiment: Antihypertensive effect in cats; format: in vivo; details: 3 hours, Octadine 20.0 mg/kg (0.08 mmol/kg), Greenflo 10.0 mg/kg (0.05 mmol/kg)

Structure (SMILES): O=C(O)Cc1ccccc1Nc1c(Cl)cccc1Cl [DN, sodium diclofenac]
- ED 50, mg/kg [1]: 8.0 [14, 16] mg/kg

Structure (SMILES): O=C(O)CCC(=O)Oc1cc(OC(=O)CCC(=O)O)c2c(=O)c(OC(=O)CCC(=O)O)c(-c3ccc(OC(=O)CCC(=O)O)c(OC(=O)CCC(=O)O)c3)oc2c1 [Fully succinylated quercetin, pentasuccinyl quercetin]
- biological activity [2]: did not exhibit biological activity

Structure (SMILES): N=C(N)NCCN1CCCCCCC1 [Octadine]
- The effect, % (hypotensive) (SBP of white rats; dose 5.0 mg/kg): 18.0 ± 2.7%
- The effect, % (hypotensive) (SBP of white rats; dose 10.0 mg/kg): 26.0 ± 1.5%
- The effect, % (hypotensive) (SBP of white rats; dose 20.0 mg/kg): 33.0 ± 4.9%
- Antihypertensive effect, % (SBP of white rats): 19.7 ± 2.2%
- Antihypertensive effect, % (SBP of white rats; listed as octadine): 19.7±2.2%
- Antihypertensive effect, % [3]: 32.0 ± 6.1%
- Antihypertensive effect, % [4]: 35.0 ± 9.9%

From patent US11229622B2, “Cosmetological and pharmaceutical composition based on combinatorial quercetin derivative” (priority 2017, dated 2022)
